This assay relates to hypoxia-inducible endogenous VEGF expression in HeLa cells. As to the kind of experiment: Hypoxia-inducible endogenous VEGF expression, VEGF ELISA of conditioned media (dose-response EC50). It is filed as cell-based. To be noted: Homo sapiens. How it is done: The ability of the compounds of the invention to modulate hypoxia-inducible endogenous VEGF expression may be analyzed as follows. VEGF protein levels may be monitored by an ELISA assay (R&D Systems). Briefly, HeLa cells may be cultured for 24-48 hours under hypoxic conditions (1% O2, 5% CO2, balanced with nitrogen) in the presence or absence of a compound of the invention. The conditioned media may then be assayed by ELISA, and the concentration of VEGF calculated from the standard ELISA curve of each assay.
A dose-response analysis may be performed using the ELISA assay and conditions described above. The conditions for the dose-response ELISA are analogous to those described above. A series of, e.g., seven different concentrations may be analyzed. […] Dose-response curves may be plotted using percentage inhibition versus concentration of the compound, and EC50 and CC50 values may be generated for each compound with the maximal inhibition set as 100% and the minimal inhibition as 0%.

Setting [1] is: HeLa cells under hypoxic conditions.
Setting [2] is: HeLa cells, hypoxic conditions (1% O2, 5% CO2).

`CCOC(=O)N1CCc2c([nH]c3ccc(Br)cc23)C1c1ccc(C)cc1` (stereo not shown) [#8]: the EC50 under setting [1] is less than 8 nM.

With `CCOC(=O)N1CCc2c([nH]c3ccc(Cl)cc23)C1c1ccc([N+](=O)[O-])cc1` (stereo not shown) [#74], the EC50 under setting [1] was 8 to 40 nM. Same read-out and setting: under `COc1ccc(OC(=O)N2CCc3c([nH]c4ccc(Br)cc34)[C@@H]2c2ccc(Cl)cc2)cc1` [#332] stands more than 1000 nM. Consider `O=C(Oc1ccc(F)cc1)N1CCc2c([nH]c3ccc(Cl)cc23)C1c1ccc(OCCNc2nccs2)cc1` (stereo not shown) [#837], for which, under setting [2], the concentration giving a half-maximal response (EC50) was less than 8 nM. In the case of `Cc1cnc(NCCOc2ccc(C3c4[nH]c5ccc(Cl)cc5c4CCN3C(=O)Oc3ccc(F)cc3)cc2)s1` (stereo not shown) [#838], under setting [2], the EC50 is less than 8 nM.

`O=C(Oc1ccc(Cl)cc1)N1CCc2c([nH]c3ccc(Cl)cc23)C1c1ccc(OCCNc2nccs2)cc1` (stereo not shown) [#841] returned an EC50 under setting [2] of less than 8 nM. For the compound `Cc1cnc(NCCOc2ccc(C3c4[nH]c5ccc(Cl)cc5c4CCN3C(=O)Oc3ccc(Cl)cc3)cc2)s1` (stereo not shown) [#842], under setting [2], the EC50 was less than 8 nM. Compound `O=C(Oc1ccc(Cl)cc1)N1CCc2c([nH]c3ccc(Cl)cc23)C1c1ccc(OCCNc2cccnc2)cc1` (stereo not shown) [#843] returned an EC50 under setting [2] of less than 8 nM. On to `COc1ccc(C2c3[nH]c4ccc(Cl)cc4c3CCN2c2cnccn2)cc1` (stereo not shown) [Compound 1], for which the EC50 under setting [1] is 8 to 40 nM. With `CCOC(=O)N1CCc2c([nH]c3ccc(Cl)cc23)C1c1ccc(OC)cc1` (stereo not shown) [Compound 2], under setting [1], the EC50 was less than 8 nM. In turn, `CCOC(=O)N1CCc2c([nH]c3ccc(Br)cc23)C1c1ccc(Br)cc1` (stereo not shown) [Compound 3] gave an EC50 under setting [1] of less than 8 nM. In turn, `CCOC(=O)N1CCc2c([nH]c3ccc(Br)cc23)C1c1ccc(Cl)cc1` (stereo not shown) [Compound 4] showed an EC50 under setting [1] of less than 8 nM. Still for that read-out and setting: next, `CCOC(=O)N1CCc2c([nH]c3ccc(Cl)cc23)C1c1cccc(F)c1F` (stereo not shown) [Compound 5]: less than 8 nM; `O=C(OCCCl)N1CCc2c([nH]c3ccc(Cl)cc23)C1c1cccc(F)c1F` (stereo not shown) [Compound 6]: less than 8 nM. For `CCOC(=O)N1CCc2c([nH]c3ccc(Cl)cc23)C1c1ccc(Cl)cc1` (stereo not shown) [Compound 11], under setting [1], the EC50 is less than 8 nM. Same read-out and setting: next, `N#Cc1ccc(C2c3[nH]c4ccc(Cl)cc4c3CCN2C(=O)OCCCl)cc1` (stereo not shown) [Compound 12]: less than 8 nM. `CCCOC(=O)N1CCc2c([nH]c3ccc(Cl)cc23)C1c1ccc(C(C)C)cc1` (stereo not shown) [Compound 13] showed an EC50 under setting [1] of less than 8 nM. On to `CCOC(=O)N1CCc2c([nH]c3ccc(Cl)cc23)C1c1ccc(C(C)C)cc1` (stereo not shown) [Compound 14], for which the EC50 under setting [1] is less than 8 nM.

In the case of `O=C(OCCCl)N1CCc2c([nH]c3ccc(Cl)cc23)C1c1cccc(C(F)(F)F)c1` (stereo not shown) [Compound 15], under setting [1], the EC50 is less than 8 nM. Still for that read-out and setting: under `CCOC(=O)N1CCc2c([nH]c3ccc(Br)cc23)C1c1cccc(Cl)c1` (stereo not shown) [Compound 16] stands less than 8 nM.

Regarding `COc1ccc(C2c3[nH]c4ccc(Cl)cc4c3CCN2C(=O)Oc2ccc(C)cc2)cc1` (stereo not shown) [Compound 17], the EC50 under setting [1] is less than 8 nM. Compound `CC(C)c1ccc(C2c3[nH]c4ccc(Cl)cc4c3CCN2C(=O)OCCCl)cc1` (stereo not shown) [Compound 18] gave an EC50 under setting [1] of less than 8 nM. Still for that read-out and setting: under `CCCOC(=O)N1CCc2c([nH]c3ccc(Cl)cc23)C1c1ccc(C(F)(F)F)cc1` (stereo not shown) [Compound 19] stands less than 8 nM; under `CCOC(=O)N1CCc2c([nH]c3ccc(Cl)cc23)C1c1cccc(Cl)c1` (stereo not shown) [Compound 20], less than 8 nM.

Compound `CCOC(=O)N1CCc2c([nH]c3ccc(Cl)cc23)C1c1ccc(F)cc1F` (stereo not shown) [Compound 21] had an EC50 under setting [1] of less than 8 nM.

Under setting [1], `O=C(OCCCl)N1CCc2c([nH]c3ccc(Cl)cc23)C1c1cc(F)ccc1F` (stereo not shown) [Compound 22] returned an EC50 of less than 8 nM. As for `CCOC(=O)N1CCc2c([nH]c3ccc(Cl)cc23)C1c1ccc(F)cc1` (stereo not shown) [Compound 23], the half-maximal effective concentration (EC50) under setting [1] was less than 8 nM. Compound `CC(C)OC(=O)N1CCc2c([nH]c3ccc(Cl)cc23)C1c1ccc(C(C)C)cc1` (stereo not shown) [Compound 24] had an EC50 under setting [1] of less than 8 nM. Turning to `CC(C)OC(=O)N1CCc2c([nH]c3ccc(Cl)cc23)C1c1ccc(C(F)(F)F)cc1` (stereo not shown) [Compound 26], the EC50 under setting [1] is less than 8 nM. As to `CCOC(=O)N1CCc2c([nH]c3ccc(Br)cc23)C1c1ccccc1` (stereo not shown) [Compound 27], under setting [1], the EC50 is less than 8 nM. The compound `CCCOC(=O)N1CCc2c([nH]c3ccc(Cl)cc23)C1c1ccc(OC)cc1` (stereo not shown) [Compound 28] displayed an EC50 under setting [1] of less than 8 nM. On to `CCOC(=O)N1CCc2c([nH]c3ccc(Br)cc23)C1c1cccc(F)c1F` (stereo not shown) [Compound 29], for which, under setting [1], the EC50 was less than 8 nM. For `COc1ccc(C2c3[nH]c4ccc(Cl)cc4c3CCN2C(=O)OCC(C)C)cc1` (stereo not shown) [Compound 30], the EC50 under setting [1] was less than 8 nM. Turning to `CCOC(=O)N1CCc2c([nH]c3ccc(Cl)cc23)C1c1ccc(C(F)(F)F)cc1` (stereo not shown) [Compound 31], under setting [1], the EC50 was less than 8 nM.

`CCOC(=O)N1CCc2c([nH]c3ccc(Br)cc23)C1c1cccc(C(F)(F)F)c1` (stereo not shown) [Compound 32] returned an EC50 under setting [1] of less than 8 nM. `O=C(OCCCl)N1CCc2c([nH]c3ccc(Cl)cc23)C1c1ccc(C(F)(F)F)cc1` (stereo not shown) [Compound 33]: the EC50 under setting [1] was less than 8 nM. For the compound `COC(=O)N1CCc2c([nH]c3ccc(Cl)cc23)C1c1ccc(C(C)C)cc1` (stereo not shown) [Compound 34], the EC50 under setting [1] is less than 8 nM. The same measure, in the same setting: next, `O=C(OCCCl)N1CCc2c([nH]c3ccc(Cl)cc23)C1c1ccc(F)c(F)c1` (stereo not shown) [Compound 35]: less than 8 nM; `Cc1ccc(C2c3[nH]c4ccc(Cl)cc4c3CCN2C(=O)OC(C)C)cc1` (stereo not shown) [Compound 36]: less than 8 nM; `CCOC(=O)N1CCc2c([nH]c3ccc(Cl)cc23)C1c1cccc(C(F)(F)F)c1` (stereo not shown) [Compound 37]: less than 8 nM.

The compound `CCOC(=O)N1CCc2c([nH]c3ccc(Cl)cc23)C1c1ccccc1` (stereo not shown) [Compound 38] showed an EC50 under setting [1] of less than 8 nM. Under setting [1], `CCOC(=O)N1CCc2c([nH]c3ccc(Cl)cc23)C1c1ccc(F)c(F)c1` (stereo not shown) [Compound 39] showed an EC50 of less than 8 nM. Take `CC(C)OC(=O)N1CCc2c([nH]c3ccc(Cl)cc23)C1c1ccc(Cl)cc1` (stereo not shown) [Compound 40]: the concentration for a half-maximal effect (EC50) under setting [1] is less than 8 nM. The same measure, in the same setting: next, `CCCOC(=O)N1CCc2c([nH]c3ccc(Cl)cc23)C1c1ccc(Br)cc1` (stereo not shown) [Compound 41]: less than 8 nM; `CCCOC(=O)N1CCc2c([nH]c3ccc(Cl)cc23)C1c1ccc(C)cc1` (stereo not shown) [Compound 42]: less than 8 nM; `COC(=O)N1CCc2c([nH]c3ccc(Cl)cc23)C1c1ccc(OC)cc1` (stereo not shown) [Compound 43]: less than 8 nM. On the same count and under the same terms, next, `CCOC(=O)N1CCc2c([nH]c3ccc(Br)cc23)C1c1cccc(Br)c1` (stereo not shown) [Compound 44]: less than 8 nM; `CC(C)OC(=O)N1CCc2c([nH]c3ccc(Cl)cc23)C1c1ccc(C#N)cc1` (stereo not shown) [Compound 45]: less than 8 nM; `COC(=O)N1CCc2c([nH]c3ccc(Cl)cc23)C1c1ccc(Br)cc1` (stereo not shown) [Compound 46]: 8 to 40 nM.

In the case of `CC(C)OC(=O)N1CCc2c([nH]c3ccc(Cl)cc23)C1c1ccc(Br)cc1` (stereo not shown) [Compound 47], the EC50 under setting [1] is 8 to 40 nM. For the compound `Cc1ccc(C2c3[nH]c4ccc(Cl)cc4c3CCN2C(=O)OCCCl)cc1` (stereo not shown) [Compound 48], under setting [1], the EC50 was in the range of 8 to 40 nM. Still for that read-out and setting: next, `CCCOC(=O)N1CCc2c([nH]c3ccc(Cl)cc23)C1c1ccc(Cl)cc1` (stereo not shown) [Compound 49]: 8 to 40 nM; `CC(=O)N1CCc2c([nH]c3ccc(Br)cc23)C1c1ccc(Cl)cc1` (stereo not shown) [Compound 50]: 8 to 40 nM; `CCOC(=O)N1CCc2c([nH]c3ccc(Cl)cc23)C1c1cccc(F)c1` (stereo not shown) [Compound 51]: 8 to 40 nM. In turn, `COC(=O)N1CCc2c([nH]c3ccc(Cl)cc23)C1c1ccc(C)cc1` (stereo not shown) [Compound 52] registered an EC50 under setting [1] of 8 to 40 nM.

One may read the EC50 as the concentration giving half of the maximal effect. The low end stands for higher potency in that assay, the high end for lower potency in that assay.

Source of the values: patent publication US8076352B2, “Administration of carboline derivatives useful in the treatment of cancer and other diseases” (PTC Therapeutics, Inc., priority 2004, dated 2011).
